{"source": "patent US11655244B2", "about": "“Carbazole compounds and methods of use thereof” (GSNO Therapeutics, Inc, priority 2017, dated 2023)", "key": {"GSNOR enzyme": {"biological_target": "GSNOR enzyme (Homo sapiens, UniProt P11766)", "sequence (P11766 whole entry)": "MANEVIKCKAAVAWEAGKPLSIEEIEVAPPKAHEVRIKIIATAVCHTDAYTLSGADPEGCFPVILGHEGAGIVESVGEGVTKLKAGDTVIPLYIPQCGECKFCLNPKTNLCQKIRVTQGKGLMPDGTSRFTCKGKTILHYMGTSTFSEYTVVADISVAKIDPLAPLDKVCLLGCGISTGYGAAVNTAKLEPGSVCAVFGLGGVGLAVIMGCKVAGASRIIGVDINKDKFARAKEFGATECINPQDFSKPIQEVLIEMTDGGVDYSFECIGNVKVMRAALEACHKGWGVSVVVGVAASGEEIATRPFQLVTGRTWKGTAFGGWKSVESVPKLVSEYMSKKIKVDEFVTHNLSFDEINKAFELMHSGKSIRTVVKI", "assay": "GSNOR inhibition assay (rate of NADH consumption, 340 nm absorbance)", "type": "biochemical", "experimental": "The following compounds were also prepared based on the methods described herein, using the appropriate starting materials. Table 2a and Table 2b also provides the % GSNOR inhibition at 20 μM of compounds described herein. […] The buffer was 100 mM phosphate buffer (pH 7.4.) The rate of NADH consumption for each well was determined by ultraviolet spectroscopy. Plates were read on a Molecular Devices Spectra Max UV/Visible Spectrophotometer/plate reader and the change in 340 nm absorbance at 25° C. was recorded for each well at 10 sec intervals over the duration of the recording period (2˜5 minutes). The rate was measured from the linear portion of the curve. Final test compound concentration was 20 μM. The mean % inhibition from 3 test compound wells and 5 control wells was measured as the percentage of the mean no compound+enzyme−the mean no enzyme, no compound control."}, "[1]": {"system": "collagen induced arthritis model in DBAJ1 mice", "assay": "Collagen induced arthritis model", "type": "in vivo", "settings": "15 mg/kg daily from day 8", "experimental": "Compound 17 was tested in a collagen induced arthritis model in DBAJ1 mice. Compound 17 was started on day 8 when the arthritis was established, as in a therapeutic model, and the DBAJ1 mice were then treated daily with Compound 17 (15 mg/kg). Mice were challenged with bovine collagen II+complete adjuvant at day 0. Clinical scores were determined as follows: 0=normal; 0.5=erythema and edema in only one digit; 1=erythema and mild edema of the footpad, or ankle or two to five digits; 2=erythema and moderate edema of two joints (footpad, ankle, two to five digits); 3=erythema and severe edema of the entire paw; 4=reduced swelling and deformation leading to an incapacitated limb.\nMeasurement of anti-collagen antibodies in the collagen induced arthritis model of rheumatoid arthritis in DBAJ1 Mice was by an anti-collagen ELISA kit by standard methods."}, "[2]": {"system": "non-alcoholic steatohepatitis (NASH) in male C57BL/6 mice", "assay": "Non-alcoholic steatohepatitis (NASH) model, Streptozotocin plus 60% kcal fat diet", "type": "in vivo", "settings": "for liver to body weight ratio: disease control 0.066; for decrease of percentage collagen proportion area (CPA), Masson's trichrome staining, liver: vs disease control", "experimental": "Timed pregnant mice (n=44) were selected for the study. The delivered pups were subcutaneously injected on post-natal day 2 with 200 μg of Streptozotocin and were allowed to remain with the mother until they reached the weanling age. After weanling, the male pups were selected and fed with 60% kcal fat diet (Research Diet-D12492) for next 6 weeks. All the animals were observed once daily for clinical signs and twice daily for morbidity and mortality.\nMice were dosed with vehicle, Compound 17 (at 3 mg/kg or 10 mg/kg) and 10 mg/kg of reference compound (either Obeticholic acid (OCA) or Elafibranor (ELA, GFT505)) once daily before the start of dark cycle (6:00 PM) from day 0 to 21. Animal body weight measurements were made daily for the complete duration of the experiment. Animals were dosed for 21 days (from week 9 to 12) with the test and reference compounds. Blood glucose was estimated before the treatment start, day 11 and on the termination day. Histopathology analysis including the H&E staining, Masson's trichrome staining and the Oil-red-O (ORO) staining was performed for the liver tissues."}}, "note": "Where two headings read alike, the source gives them in different places."}
{"smiles": "NC(=O)CCn1c2ccc(-n3ccnc3)cc2c2ccc(CCC(=O)O)cc21", "note": "[Compound 17, 3-(imidazol-1(H)-yl)-7-(2-carboxylethyl)-9(H)-(2-aminocarbonylethyl) carbazole]", "values": [{"measurement": "inhibition at 20 µM", "setting": "GSNOR enzyme; Table 2a, test compound 20 μM, pH 7.4, 25° C., read-out: % Inhibit. at 20 μM", "value": 92.8, "unit": "%"}, {"measurement": "inhibition at 20 µM", "setting": "GSNOR enzyme; Table 2b, test compound 20 uM, read-out: % GSNOR Inhibition at 20 uM", "value": 92.8, "unit": "%"}, {"measurement": "arthritis (clinical score)", "setting": "[1]", "value": "inhibits arthritis"}, {"measurement": "production of anti-collagen antibodies", "setting": "[1]; ELISA", "value": "inhibits production of anti-collagen antibodies"}, {"measurement": "ORO (Oil-Red-O) steatosis score relative to disease control", "setting": "[2]; 3 mg/kg", "value": "−28", "unit": "%"}, {"measurement": "change of liver to body weight ratio compared with disease control", "setting": "[2]; 3 mg/kg", "value": "−18.5", "unit": "%"}, {"measurement": "steatosis and lobular inflammation in the liver as indicated by the NAS", "setting": "[2]; 3 mg/kg and 10 mg/kg", "value": "markedly reduced steatosis and lobular inflammation in the liver"}, {"measurement": "weight put on relative to naïve controls at day 21", "setting": "[2]; 3 mg/kg", "value": "+1.3%"}, {"measurement": "liver to body weight ratio", "setting": "[2]; 3 mg/kg", "value": 0.054}, {"measurement": "decrease of percentage collagen proportion area (CPA), Masson's trichrome staining, liver", "setting": "[2]; 3 mg/kg", "value": 29, "unit": "%"}, {"measurement": "ORO (Oil-Red-O) steatosis score relative to disease control", "setting": "[2]; 10 mg/kg", "value": "−52", "unit": "%"}, {"measurement": "change of liver to body weight ratio compared with disease control", "setting": "[2]; 10 mg/kg", "value": "−16.2", "unit": "%"}, {"measurement": "reduction of plasma glucose relative to disease control", "setting": "[2]; 10 mg/kg, i.p., p<0.01", "value": 17.4, "unit": "%"}, {"measurement": "weight put on relative to naïve controls at day 21", "setting": "[2]; 10 mg/kg", "value": "−43", "unit": "%"}, {"measurement": "liver to body weight ratio", "setting": "[2]; 10 mg/kg", "value": 0.055}, {"measurement": "decrease of percentage collagen proportion area (CPA), Masson's trichrome staining, liver", "setting": "[2]; 10 mg/kg", "value": 20, "unit": "%"}, {"measurement": "body weight increase compared with disease controls", "setting": "[2]; 3 and 10 mg/kg, 21 days of treatment", "value": "both less than disease controls"}, {"measurement": "NAS (in words)", "setting": "[2]; 3 and 10 mg/kg, p<0.05", "value": "significantly decreased the NAS"}, {"measurement": "change in body weight (g), Mean", "setting": "[2]; Day 1, 3 mg/kg once daily", "value": 0.00, "unit": "g"}, {"measurement": "change in body weight (g), Mean", "setting": "[2]; Day 1, 10 mg/kg once daily", "value": 0.00, "unit": "g"}, {"measurement": "change in body weight (g), Mean", "setting": "[2]; Day 2, 3 mg/kg once daily", "value": 0.54, "unit": "g"}, {"measurement": "change in body weight (g), Mean", "setting": "[2]; Day 2, 10 mg/kg once daily", "value": 0.65, "unit": "g"}, {"measurement": "change in body weight (g), Mean", "setting": "[2]; Day 3, 3 mg/kg once daily", "value": 0.85, "unit": "g"}, {"measurement": "change in body weight (g), Mean", "setting": "[2]; Day 3, 10 mg/kg once daily", "value": 0.96, "unit": "g"}, {"measurement": "change in body weight (g), Mean", "setting": "[2]; Day 4, 3 mg/kg once daily", "value": 0.48, "unit": "g"}, {"measurement": "change in body weight (g), Mean", "setting": "[2]; Day 4, 10 mg/kg once daily", "value": 0.76, "unit": "g"}, {"measurement": "change in body weight (g), Mean", "setting": "[2]; Day 5, 3 mg/kg once daily", "value": 0.35, "unit": "g"}, {"measurement": "change in body weight (g), Mean", "setting": "[2]; Day 5, 10 mg/kg once daily", "value": 0.81, "unit": "g"}, {"measurement": "change in body weight (g), Mean", "setting": "[2]; Day 6, 3 mg/kg once daily", "value": 0.68, "unit": "g"}, {"measurement": "change in body weight (g), Mean", "setting": "[2]; Day 6, 10 mg/kg once daily", "value": 0.84, "unit": "g"}, {"measurement": "change in body weight (g), Mean", "setting": "[2]; Day 7, 3 mg/kg once daily", "value": 0.54, "unit": "g"}, {"measurement": "change in body weight (g), Mean", "setting": "[2]; Day 7, 10 mg/kg once daily", "value": 0.19, "unit": "g"}, {"measurement": "change in body weight (g), Mean", "setting": "[2]; Day 8, 3 mg/kg once daily", "value": 0.21, "unit": "g"}, {"measurement": "change in body weight (g), Mean", "setting": "[2]; Day 8, 10 mg/kg once daily", "value": 0.78, "unit": "g"}, {"measurement": "change in body weight (g), Mean", "setting": "[2]; Day 9, 3 mg/kg once daily", "value": 0.53, "unit": "g"}, {"measurement": "change in body weight (g), Mean", "setting": "[2]; Day 9, 10 mg/kg once daily", "value": 0.80, "unit": "g"}, {"measurement": "change in body weight (g), Mean", "setting": "[2]; Day 10, 3 mg/kg once daily", "value": 0.56, "unit": "g"}, {"measurement": "change in body weight (g), Mean", "setting": "[2]; Day 10, 10 mg/kg once daily", "value": 0.89, "unit": "g"}, {"measurement": "change in body weight (g), Mean", "setting": "[2]; Day 11, 3 mg/kg once daily", "value": 0.40, "unit": "g"}, {"measurement": "change in body weight (g), Mean", "setting": "[2]; Day 11, 10 mg/kg once daily", "value": 0.91, "unit": "g"}, {"measurement": "change in body weight (g), Mean", "setting": "[2]; Day 12, 3 mg/kg once daily", "value": -0.49, "unit": "g"}, {"measurement": "change in body weight (g), Mean", "setting": "[2]; Day 12, 10 mg/kg once daily", "value": -0.08, "unit": "g"}, {"measurement": "change in body weight (g), Mean", "setting": "[2]; Day 13, 3 mg/kg once daily", "value": 0.81, "unit": "g"}, {"measurement": "change in body weight (g), Mean", "setting": "[2]; Day 13, 10 mg/kg once daily", "value": 0.74, "unit": "g"}, {"measurement": "change in body weight (g), Mean", "setting": "[2]; Day 14, 3 mg/kg once daily", "value": 1.10, "unit": "g"}, {"measurement": "change in body weight (g), Mean", "setting": "[2]; Day 14, 10 mg/kg once daily", "value": 0.71, "unit": "g"}, {"measurement": "change in body weight (g), Mean", "setting": "[2]; Day 15, 3 mg/kg once daily", "value": 0.84, "unit": "g"}, {"measurement": "change in body weight (g), Mean", "setting": "[2]; Day 15, 10 mg/kg once daily", "value": 1.01, "unit": "g"}, {"measurement": "change in body weight (g), Mean", "setting": "[2]; Day 16, 3 mg/kg once daily", "value": 1.32, "unit": "g"}, {"measurement": "change in body weight (g), Mean", "setting": "[2]; Day 16, 10 mg/kg once daily", "value": 1.09, "unit": "g"}, {"measurement": "change in body weight (g), Mean", "setting": "[2]; Day 17, 3 mg/kg once daily", "value": 1.38, "unit": "g"}, {"measurement": "change in body weight (g), Mean", "setting": "[2]; Day 17, 10 mg/kg once daily", "value": 1.13, "unit": "g"}, {"measurement": "change in body weight (g), Mean", "setting": "[2]; Day 18, 3 mg/kg once daily", "value": 1.11, "unit": "g"}, {"measurement": "change in body weight (g), Mean", "setting": "[2]; Day 18, 10 mg/kg once daily", "value": 0.97, "unit": "g"}, {"measurement": "change in body weight (g), Mean", "setting": "[2]; Day 19, 3 mg/kg once daily", "value": 1.22, "unit": "g"}, {"measurement": "change in body weight (g), Mean", "setting": "[2]; Day 19, 10 mg/kg once daily", "value": 1.16, "unit": "g"}, {"measurement": "change in body weight (g), Mean", "setting": "[2]; Day 20, 3 mg/kg once daily", "value": 1.56, "unit": "g"}, {"measurement": "change in body weight (g), Mean", "setting": "[2]; Day 20, 10 mg/kg once daily", "value": 0.80, "unit": "g"}, {"measurement": "change in body weight (g), Mean", "setting": "[2]; Day 21, 3 mg/kg once daily", "value": 1.57, "unit": "g"}, {"measurement": "change in body weight (g), Mean", "setting": "[2]; Day 21, 10 mg/kg once daily", "value": 0.89, "unit": "g"}]}
